Results taken from patent US20180273482A1, “COMPOSITIONS AND METHODS FOR INCREASING, OR PREVENTING OR REVERSING LOSS OF, SKIN PIGMENTATION IN A MAMMALIAN SUBJECT” (THE TRUSTEES OF THE UNIVERSITY OF PENNSYLVANIA, priority 2015, published 2018).

Test system: C57BL/6 mice ear skin
Test: Topical G-1 treatment of mouse ear skin
Format: in vivo
Conditions: 2% G-1 topical, 3 weeks
Method: 2×10^5 melanocytes were seeded uniformly on 6-well tissue culture plates. […] For tissue melanin assays, tissue was weighed prior to boiling in 1M NaOH for 20 minutes.
2% (w/v) G-1 was prepared in DMSO. 20 μL of this solution was applied daily to the right ear, with vehicle only applied to the left ear, of 4-week-old C57BL/6 mice. These studies were performed without inclusion/exclusion criteria, randomization, or blinding. Based on a two-fold anticipated effect, this experiment was performed with 3 biological replicates.

## CC(=O)c1ccc2c(c1)[C@@H]1C=CC[C@@H]1[C@H](c1cc3c(cc1Br)OCO3)N2 (racemic) [G-1, rel-1-[4-(6-bromo-1,3-benzodioxol-5-yl)-3aR,4S,5,9bS-tetrahydro-3H-cyclopenta[c]quinolin-8-yl]-ethanone]
  pigment in treated ears compared to vehicle: increased pigment
Right ear, whole ear tissue melanin assay
  melanin content of treated tissue vs controls: 1.6 fold
